Results taken from article PMC6200766, “Fisetin targets YB-1/RSK axis independent of its effect on ERK signaling: insights from in vitro and in vivo melanoma models” (Scientific Reports, 2018).
Like-named read-outs stand apart in the source and are kept apart here. Blank lines part the entries; values can stand above or below the molecule they belong to.

Key:
[1] = biological target: T1, RSK3 (Homo sapiens, UniProt Q15349); test: KINOMEscan competition binding assay; design: RSK3 (Kinase Domain 1-N-terminal): Average Kd (nM): 5200; RSK3 (Kinase Domain 2-C-terminal): Average Kd (nM): 5800; purchased KINOMEscan screening platform (San Diego, CA), contract assay; conditions: duplicate, top concentration 100 µM
Protocol: (§1) The KINOMEscan screening platform (San Diego, CA) was employed to quantitatively measure interactions between fisetin and RSK isoforms. Binding constants (Kds) were calculated by measuring the amount of kinase captured on solid support as a function of the test compound concentration, using the Hill equation. The Hill Slope was set to −1. Curves were fitted using a non-linear least square fit with the Levenberg-Marquardt algorithm.

[2] = test system: NCI/ADR-Res cells; test: MTT cell viability; assay type: cell-based, human; conditions: NCI/ADR-Res ovarian tumor cells
Protocol: Cells seeded in 24-well plates were treated at 70% confluence with/without fisetin and/or vemurafenib for 24 hours. Cell viability was determined by MTT assay as described.

[3] = biological target: ERK1 (Homo sapiens, UniProt P27361); test: Radiometric in vitro kinase activity assay; assay type: biochemical
[4] = biological target: ERK2 (Homo sapiens, UniProt P28482); test: Radiometric in vitro kinase activity assay; assay type: biochemical
[5] = biological target: T2, RSK2 (Homo sapiens, UniProt P51812); test: KINOMEscan competition binding assay; design: purchased KINOMEscan screening platform (San Diego, CA), contract assay
Protocol: as §1

[6] = biological target: T2, RSK2; test: Radiometric in vitro kinase activity assay (Reaction Biology); assay type: biochemical; design: purchased Reaction Biology Corporation (Malvern, PA), contract assay; conditions: 10-dose, 3-fold serial dilution from 100 μM; 30 μM ATP; read-out: IC50 (M), kinase activity inhibition RSK2
Target sequence in this assay (P51812 whole entry): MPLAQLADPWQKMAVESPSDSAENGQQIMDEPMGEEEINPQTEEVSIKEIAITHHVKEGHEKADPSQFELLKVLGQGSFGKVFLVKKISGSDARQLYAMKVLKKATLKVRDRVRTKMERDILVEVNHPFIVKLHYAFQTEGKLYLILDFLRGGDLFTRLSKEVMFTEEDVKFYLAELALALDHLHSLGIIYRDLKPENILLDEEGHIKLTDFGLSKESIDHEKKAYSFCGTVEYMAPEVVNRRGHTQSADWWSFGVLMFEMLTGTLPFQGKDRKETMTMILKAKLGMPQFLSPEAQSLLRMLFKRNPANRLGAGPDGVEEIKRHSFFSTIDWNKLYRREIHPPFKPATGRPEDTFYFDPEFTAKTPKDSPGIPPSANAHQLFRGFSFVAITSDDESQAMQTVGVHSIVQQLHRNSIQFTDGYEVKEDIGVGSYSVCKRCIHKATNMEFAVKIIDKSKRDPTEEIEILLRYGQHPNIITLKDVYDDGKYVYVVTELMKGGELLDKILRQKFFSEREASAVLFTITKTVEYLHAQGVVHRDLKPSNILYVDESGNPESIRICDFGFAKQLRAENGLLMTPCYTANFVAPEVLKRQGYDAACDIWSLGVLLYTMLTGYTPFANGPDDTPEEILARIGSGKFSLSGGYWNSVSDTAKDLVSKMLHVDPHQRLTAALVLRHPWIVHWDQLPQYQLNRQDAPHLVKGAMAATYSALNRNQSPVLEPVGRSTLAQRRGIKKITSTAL

[7] = biological target: T3, RSK1 (Homo sapiens, UniProt Q15418); test: biochemical
Protocol: In vitro kinase activity profiling of RSK isoforms was performed at Reaction Biology Corporation (Malvern, PA). Briefly, the specific kinase/substrate pair alongwith required cofactors was prepared in reaction buffer.
Target sequence in this assay (Q15418 whole entry, canonical isoform): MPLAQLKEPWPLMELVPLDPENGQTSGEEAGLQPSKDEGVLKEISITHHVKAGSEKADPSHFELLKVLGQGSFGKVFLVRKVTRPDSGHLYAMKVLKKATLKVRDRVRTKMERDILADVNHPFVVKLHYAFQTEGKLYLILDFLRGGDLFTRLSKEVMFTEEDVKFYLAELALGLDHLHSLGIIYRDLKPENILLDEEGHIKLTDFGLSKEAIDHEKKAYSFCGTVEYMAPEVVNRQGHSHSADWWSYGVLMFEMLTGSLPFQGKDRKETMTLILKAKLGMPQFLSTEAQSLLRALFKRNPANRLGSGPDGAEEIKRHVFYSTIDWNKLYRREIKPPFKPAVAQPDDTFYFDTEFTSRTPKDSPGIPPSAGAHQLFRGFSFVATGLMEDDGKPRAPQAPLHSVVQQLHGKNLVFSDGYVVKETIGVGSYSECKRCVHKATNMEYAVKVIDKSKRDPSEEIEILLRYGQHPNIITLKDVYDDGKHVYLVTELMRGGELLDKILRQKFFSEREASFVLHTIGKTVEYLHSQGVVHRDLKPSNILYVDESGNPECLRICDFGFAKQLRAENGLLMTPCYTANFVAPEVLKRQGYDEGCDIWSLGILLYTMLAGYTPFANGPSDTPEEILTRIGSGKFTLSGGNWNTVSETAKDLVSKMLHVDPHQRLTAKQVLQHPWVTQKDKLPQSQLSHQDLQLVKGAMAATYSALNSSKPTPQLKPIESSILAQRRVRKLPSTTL

[8] = biological target: T3, RSK1; test: KINOMEscan competition binding assay; design: RSK1 (Kinase Domain 1-N-terminal): Average Kd (nM): 8100; RSK1 (Kinase Domain 2-C-terminal): Average Kd (nM): 2500; purchased KINOMEscan screening platform (San Diego, CA), contract assay; conditions: duplicate, top concentration 100 µM
Protocol: as §1

[9] = test system: YB-1; test: Western blot/immunocytochemistry of YB-1 in melanoma cells; assay type: cell-based, human
Description: WM35 and A375 cells were obtained from ATCC (Manassas, VA), NCI/ADR-Res cells from NCI (Developmental Therapeutics Program, Frederick, MD) while 451Lu cells were provided by Dr. Meenhard Herlyn (Wistar Institute, PA). Authentication report was provided by ATCC and NCI for post-freeze viability, growth properties, morphology, mycoplasma contamination, species determination (cytochrome c oxidase I assay and STR analysis), sterility test and human pathogenic virus testing. Cells were frozen in aliquots in liquid nitrogen and cultured within six months. 451Lu cells were authenticated upon receipt using STR analysis and all cell lines are regularly tested for mycoplasma contamination using MycoAlert Mycoplasma Detection Kit from Lonza (Basel, Switzerland). WM35, A375 cells were cultured in DMEM, NCI/ADR-Res in RPMI and 451Lu in MEM with 10% FBS and 1% penicillin-streptomycin, at 37 °C with 5% CO2 in a humid environment. […]
For immunohistochemistry, sections from melanoma constructs, fixed in 10% formalin were deparaffinized and rehydrated in xylene and a graded series of ethanol and blocked in 2% goat serum/PBS for 30 min. After incubation with specific primary antibody overnight and biotinylated secondary antibody for 1 h, slides were counterstained with hematoxylin and immunoreactive complexes were detected using 3,3′-diaminobenzidene (Dako Corp., CA). […]

[10] = test system: RSK; test: Western blot of RSK phosphorylation in A375 cells; assay type: cell-based, human; conditions: fisetin 60 µM:24 h, FR180204 10 µM
Description: WM35 and A375 cells were obtained from ATCC (Manassas, VA), NCI/ADR-Res cells from NCI (Developmental Therapeutics Program, Frederick, MD) while 451Lu cells were provided by Dr. Meenhard Herlyn (Wistar Institute, PA). Authentication report was provided by ATCC and NCI for post-freeze viability, growth properties, morphology, mycoplasma contamination, species determination (cytochrome c oxidase I assay and STR analysis), sterility test and human pathogenic virus testing. Cells were frozen in aliquots in liquid nitrogen and cultured within six months. 451Lu cells were authenticated upon receipt using STR analysis and all cell lines are regularly tested for mycoplasma contamination using MycoAlert Mycoplasma Detection Kit from Lonza (Basel, Switzerland). WM35, A375 cells were cultured in DMEM, NCI/ADR-Res in RPMI and 451Lu in MEM with 10% FBS and 1% penicillin-streptomycin, at 37 °C with 5% CO2 in a humid environment. After treatment of cells with/without fisetin and/or inhibitors, whole cell lysates were prepared and western blot analysis was performed as described elsewhere.

[11] = biological target: T1, RSK3; test: Radiometric in vitro kinase activity assay (Reaction Biology); assay type: biochemical; design: purchased Reaction Biology Corporation (Malvern, PA), contract assay; conditions: 10-dose, 3-fold serial dilution from 100 μM; 30 μM ATP; read-out: IC50 (M), kinase activity inhibition RSK3
Target sequence in this assay (Q15349 whole entry, the tested form may be a part, canonical isoform): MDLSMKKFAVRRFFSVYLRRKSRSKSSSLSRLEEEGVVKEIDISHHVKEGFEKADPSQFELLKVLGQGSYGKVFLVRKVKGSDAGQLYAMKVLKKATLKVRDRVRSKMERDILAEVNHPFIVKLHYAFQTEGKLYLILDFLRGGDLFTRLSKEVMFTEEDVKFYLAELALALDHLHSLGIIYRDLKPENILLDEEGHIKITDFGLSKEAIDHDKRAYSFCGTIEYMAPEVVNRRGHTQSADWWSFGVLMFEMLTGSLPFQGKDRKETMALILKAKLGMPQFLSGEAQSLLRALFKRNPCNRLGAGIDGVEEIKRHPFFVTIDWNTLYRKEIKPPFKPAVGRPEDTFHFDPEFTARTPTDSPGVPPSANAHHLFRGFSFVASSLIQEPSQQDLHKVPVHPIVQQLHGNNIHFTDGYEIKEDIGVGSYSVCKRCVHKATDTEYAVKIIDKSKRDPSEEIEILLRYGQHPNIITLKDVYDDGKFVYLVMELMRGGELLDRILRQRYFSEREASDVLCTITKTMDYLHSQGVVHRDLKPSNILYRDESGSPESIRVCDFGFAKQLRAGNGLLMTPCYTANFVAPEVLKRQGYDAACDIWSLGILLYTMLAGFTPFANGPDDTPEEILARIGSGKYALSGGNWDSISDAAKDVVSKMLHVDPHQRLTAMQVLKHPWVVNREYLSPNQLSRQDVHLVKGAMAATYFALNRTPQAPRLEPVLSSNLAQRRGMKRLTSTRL

[12] = test system: 451Lu melanoma cells; test: 451Lu melanoma xenograft in athymic nude mice; assay type: in vivo; conditions: day 35; fisetin 1 mg/animal i.p. thrice weekly; vemurafenib 2 mg/animal oral gavage 5 days/week; control 1179.7 mm^3
Protocol: Athymic (nu/nu) female nude mice (Harlan, Madison, WI), 4–5 weeks old, were housed under pathogen-free conditions, in the University of Wisconsin Animal Resource Facility, with a 12-hour light/12-hour dark schedule and fed an autoclaved diet ad libitum. All animal experiments were approved by and carried out according to Institutional Animal Care and Use Committee guidelines, University of Wisconsin-Madison, protocol # M005212. Briefly, 1 × 10^6 451Lu cells were injected s/c into each flank of 18 mice randomly divided into 3 groups. The first group received intraperitoneal injection of fisetin 40 mg/kg b.wt. (1 mg/animal) thrice weekly, the second group received vemurafenib by oral gavage 80 mg/kg b.wt. (2 mg/animal) dissolved in DMSO, 5 days/week, while the third group served as the DMSO treated control group. Mice weight and tumor volumes were recorded twice weekly. The animals were sacrificed when tumors reached a volume of 1200 mm^3 in the control group. Samples were collected and stored at −80 °C until further analysis.

[13] = biological target: T4, RSK2 binding to YB-1 (Homo sapiens, UniProt P51812); test: SPR competition assay, RSK2 pre-incubated with fisetin over immobilized YB-1; conditions: RSK2 100 nM pre-incubated with fisetin 1 and 10 µM
T4 construct: recombinant human proteins [full length and HIS-tag]; (Life Technologies, Italy); His; purchased Life Technologies, Italy (RSK2); Abnova Corporation, Taiwan (YB-1)
Protocol: (§2) Binding experiments were performed using a Biacore T-200 instrument (Uppsala, Sweden) at 25 °C. 60 response units (RU) of the YB-1 human recombinant protein with GST-tag at N-terminal (51–139 aa, 35 kDa including GST tag, from Abnova Corporation, Taiwan) were directly immobilized on the EDC/NHS activated flow cell2 of the CM5 chip (GE certified) in water. The unoccupied sites were blocked with 1 M ethanol amine. The analytes RPS6KA1 (RSK1, 88.5 kDa) and RPS6KA3 (RSK2, 86.3 kDa) recombinant human proteins [full length and HIS-tag] (Life Technologies, Italy) were flown over the chip at variable concentrations in 10 mM sodium acetate buffer (pH 5.0), with flow rate of 5ul/min, at a single analyte concentration. Binding of analyte to the immobilized protein was monitored in real time to obtain on (ka) and off (kd) rates. The equilibrium constant (KD) was calculated from the observed ka and kd or by steady state kinetics as for the small molecules. Stocks were prepared in 100% DMSO, and further dilutions were made in assay buffer containing 10 mM HEPES buffer (pH 7.4), 150 mM NaCl, 3 mM EDTA, 0.05% P20 (polyoxyethylenesorbitan) and 0.1% BSA. Full kinetics analysis was performed at using analyte concentrations 50 nM (or 100 nM without BSA) to 0, run with serial dilutions, 50, 25, 12.5, 6.25, 3.125, 0 nM, and a flow rate of 30 ul/min. […]

[14] = biological target: T5, YB-1 human recombinant protein (Homo sapiens, UniProt P67809); test: SPR (Biacore) full kinetics, RSK analytes over immobilized YB-1; conditions: without BSA; analyte 100-0 nM; 25 °C; read-out: KD for binding to immobilized YB-1
T5 construct: (51–139 aa, 35 kDa including GST tag, from Abnova Corporation, Taiwan); purchased Abnova Corporation, Taiwan
Protocol: as §2

Chain of ERK1 (P27361 whole entry): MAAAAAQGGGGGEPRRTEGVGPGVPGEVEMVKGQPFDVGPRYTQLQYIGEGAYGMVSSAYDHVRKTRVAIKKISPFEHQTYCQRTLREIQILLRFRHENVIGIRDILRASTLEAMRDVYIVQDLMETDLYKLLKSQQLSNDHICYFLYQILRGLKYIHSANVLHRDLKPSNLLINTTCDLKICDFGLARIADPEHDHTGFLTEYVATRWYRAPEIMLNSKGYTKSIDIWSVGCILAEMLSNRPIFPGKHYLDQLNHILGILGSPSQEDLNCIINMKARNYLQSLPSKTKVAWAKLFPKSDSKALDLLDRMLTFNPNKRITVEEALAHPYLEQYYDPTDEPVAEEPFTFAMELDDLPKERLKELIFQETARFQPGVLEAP
T5 sequence (P67809 51-139): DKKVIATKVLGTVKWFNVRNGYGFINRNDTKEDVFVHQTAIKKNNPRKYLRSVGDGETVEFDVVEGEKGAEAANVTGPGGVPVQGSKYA
T4 sequence (P51812 whole entry): as the sequence (P51812 whole entry) above
Chain of ERK2 (P28482 whole entry): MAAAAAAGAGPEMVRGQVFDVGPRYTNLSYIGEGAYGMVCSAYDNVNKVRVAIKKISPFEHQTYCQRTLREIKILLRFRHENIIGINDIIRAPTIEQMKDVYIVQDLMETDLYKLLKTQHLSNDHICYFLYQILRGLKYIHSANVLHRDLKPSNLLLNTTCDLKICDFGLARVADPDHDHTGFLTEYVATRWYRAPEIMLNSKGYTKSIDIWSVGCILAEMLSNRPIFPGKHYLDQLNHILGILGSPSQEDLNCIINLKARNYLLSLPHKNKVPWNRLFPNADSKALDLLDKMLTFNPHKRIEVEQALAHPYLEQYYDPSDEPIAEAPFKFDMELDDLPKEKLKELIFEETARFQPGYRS

Kd ([1]; C-terminal kinase domain, read-out: Average Kd, RSK3 (Kinase Domain 2-C-terminal)): 5.8 µM | Kd ([1]; N-terminal kinase domain, read-out: Average Kd, RSK3 (Kinase Domain 1-N-terminal)): 5.2 µM | IC50 [3]: 8.5 µM | IC50 [4]: 9.88 µM | Kd ([5]; C-terminal kinase domain, duplicate, top concentration 100 µM, read-out: Average Kd, RSK2 (Kinase Domain 2-C-terminal)): 8.4 µM | Kd ([5]; N-terminal kinase domain, duplicate, top concentration 100 µM, read-out: Average Kd, RSK2 (Kinase Domain 1-N-terminal)): 0.05 µM | Kd ([5]; single replicate curve, C-terminal kinase domain, read-out: Kd, RSK2(Kin.Dom.2-C-terminal), Replicate ID = 1): 8.1 µM | IC50 [6]: 2.78e-06 M | IC50 [7]: 3.79 µM | Kd ([8]; C-terminal kinase domain, read-out: Average Kd, RSK1 (Kinase Domain 2-C-terminal)): 2.5 µM | Kd ([8]; N-terminal kinase domain, read-out: Average Kd, RSK1 (Kinase Domain 1-N-terminal)): 8.1 µM | IC50 [11]: 8.91e-07 M | effect on binding of RSK2 to YB-1 [13]: promote its binding to YB-1
Molecule: O=c1c(O)c(-c2ccc(O)c(O)c2)oc2cc(O)ccc12 [Fisetin, fisetin]
cell viability [2]: reduced viability | YB-1 phosphorylation and total protein levels ([9]; A375 and 451Lu cells, 0–80 µM, 24 h): dose-dependent decrease in YB-1 phosphorylation | RSK phosphorylation at threonine359/serine363 [10]: significant decrease | average tumor volume [12]: 789.3 mm^3

Kd [14]: 0.534 µM
Molecule: RSK2: recombinant human protein RPS6KA3, full length, HIS-tag, 86.3 kDa; SPR analyte

Molecule: CCCS(=O)(=O)Nc1ccc(F)c(C(=O)c2c[nH]c3ncc(-c4ccc(Cl)cc4)cc23)c1F [vemurafenib, reference compound]
average tumor volume [12]: 641.7 mm^3

Molecule: Nc1[nH]nc2nnc(-c3c(-c4ccccc4)nn4ccccc34)cc12 [FR180204, reference compound]
RSK phosphorylation at threonine359/serine363 [10]: significant decrease

Molecule: CC(C)CCN1c2nc(Nc3cc(F)c(O)c(F)c3)ncc2N(C)C(=O)C1C (stereo not drawn) [BI-D1870, reference compound]
YB-1 expression ([9]; A375 cells, in comparison to fisetin (60 μM:24 h)): modest effect
